Experimental data taken from US11549123B2, “Plant EPSP synthases and methods of use” (PIONEER HI-BRED INTERNATIONAL, INC., priority 2015, dated 2023).
Positions count from the first letter of the chain named.

How the values were obtained:
[1] = biological target: T1, Zea mays EPSPS variant S-N at positions 103-107 (Zea mays, UniProt O24566, P106N/T102S); assay: EPSPS substrate saturation kinetics, maize variant 103S 107N; type: biochemical
T1 sequence (O24566 with tags, fused parts or gaps T102S/P106N): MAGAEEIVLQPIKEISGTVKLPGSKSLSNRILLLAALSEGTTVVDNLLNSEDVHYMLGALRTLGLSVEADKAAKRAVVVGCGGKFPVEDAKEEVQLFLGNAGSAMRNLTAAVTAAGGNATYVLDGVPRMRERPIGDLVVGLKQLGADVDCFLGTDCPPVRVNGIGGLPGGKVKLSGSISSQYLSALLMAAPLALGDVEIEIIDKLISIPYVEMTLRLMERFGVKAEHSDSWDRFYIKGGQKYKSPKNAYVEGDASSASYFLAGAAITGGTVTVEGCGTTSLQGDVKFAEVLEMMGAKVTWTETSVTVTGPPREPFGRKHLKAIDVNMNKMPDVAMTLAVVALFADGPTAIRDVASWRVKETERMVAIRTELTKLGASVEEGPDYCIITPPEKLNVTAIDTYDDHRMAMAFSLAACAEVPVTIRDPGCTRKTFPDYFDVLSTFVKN
Description: EPSPS activity was determined by quantifying the phosphate generated from the EPSPS reaction. Release of inorganic phosphate was coupled to reaction with 2-amino-6-mercapto-7-methylpurine ribonucleoside, catalyzed by purine-nucleoside phosphorylase (M R Webb, Proc. Natl. Acad. Sci. 89:4884-4887, 1992). The absorbance change that occurs was monitored at 360 nm, where the extinction is 11,200 M^−1 cm^−1, with a Spectramax plate reader (Molecular Devices). To determine kinetic parameters, the varied substrate was present at seven concentrations (the eighth being the blank, containing no substrate) ranging from 4 to 400 uM and the unvaried substrate present at saturation. Six microliters of 50-fold concentrated stock solutions of the varied substrate were placed in the wells of the 96-well assay plate and reactions were started with the addition of a mixture containing 25 mM Hepes, pH 7, 100 mM KCl, 0.3 mM 2-amino-6-mercapto-7-methylpurine ribonucleosde, 1 uM (1 unit/ml) purine-nucleoside phosphorylase (Sigma N8264) and 200 uM of the non-varied substrate. Reactions were monitored with a Spectramax plate reader. The Michaelis-Menten kinetics protocol of the Spectramax software was customized for the substrate concentrations used. The software returns values of KM and Vmax using the Lineweaver-Burke transformation of the Michaelis-Menten equation. To determine kcat, Vmax (uM/min) was divided by the enzyme concentration (uM). […] KI was then calculated from the following form of the Michaelis-Menten equation for competitive inhibition: KI=KM[I]/(KM app−KM) KM approximates the dissociation constant of the enzyme-substrate complex while kcat is the rate of conversion of substrate to product when the substrate concentration is saturating. kcat/KM is a widely accepted parameter for catalytic efficiency when substrate concentration is low (˜KM). […] The parameter kcat/KM×KI is used to quantify both catalytic efficiency and insensitivity and thus the overall fitness of the enzyme. […]

[2] = biological target: T2, Zea mays EPSPS variant G102A (Zea mays, UniProt O24566, G101A); assay: EPSPS substrate saturation kinetics, G102A
T2 sequence (O24566 with tags, fused parts or gaps G101A): T1 sequence (O24566 with tags, fused parts or gaps T102S/P106N) with G102A, S103T, N107P

[3] = biological target: T3, Zea mays EPSPS variant P107L (Zea mays, UniProt O24566, P106L); assay: EPSPS substrate saturation kinetics, P107L
T3 sequence (O24566 with tags, fused parts or gaps P106L): T1 sequence (O24566 with tags, fused parts or gaps T102S/P106N) with S103T, N107L

[4] = PEP as substrate, glyphosate as inhibitor
[5] = KI (glyphosate), competitive with PEP

C=C(OP(=O)(O)O)C(=O)O [PEP, phosphoenolpyruvate]
kcat ([1]; PEP varied): 161 | kcat/KM ([2]; PEP): 2.2 min^−1uM^−1 | kcat ([2]; PEP varied): 11.6 s⁻¹ | kcat/KM ([3]; PEP): 22.1 min^−1uM^−1 | kcat ([3]; PEP varied): 24.2 s⁻¹

O=C(O)CNCP(=O)(O)O [glyphosate, N-phosphonomethylglycine]
Ki [1]: 244 µM | (kcat/KM)*KI [1, 4]: 1033 | Ki [2, 5]: 2290 µM | Ki ([2]; Ki, substrate saturation, Zm-G102A): 1340 µM | (kcat/KM)*KI [2, 4]: 5137 | (kcat/KM)*KI ([2]; substrate saturation, Zm-G102A): 2820 | Ki [3, 5]: 3.6 µM | Ki ([3]; Ki, substrate saturation, Zm-P107L): 3.05 µM | (kcat/KM)*KI [3, 4]: 79 | (kcat/KM)*KI ([3]; substrate saturation, Zm-P107L): 70
